The values below come from ChEMBL document CHEMBL5252599, “Euphohelides A-C, ent-Abietane-Type Norditerpene Lactones from Euphorbia helioscopia and Their Anti-Inflammatory Activities” (J Nat Prod, 2023).

For data set [1], the system named is RAW264.7. In words: Antiinflammatory activity against mouse RAW264.7 cells assessed as inhibition of LPS-induced iNOS expression at 10 uM pre-incubated for 2 hrs followed by LPS stimulation measured after 24 hrs by western blot analysis. The format is functional, cell-based. Particulars: time 26.0 hrs.
Data set [2] relates to RAW264.7. In words: Antiinflammatory activity in mouse RAW264.7 cells assessed as reduction in LPS-induced IL-6 production pre-incubated for 2 hrs followed by LPS stimulation measured after 24 hrs by Griess method. The format is functional, cell-based. Particulars: dose 5-40 µM, time 26.0 hrs.
Data set [3] concerns RAW264.7. Nature of the data set: Cytotoxicity against mouse RAW264.7 cells assessed as reduction in cell viability at 100 uM measured after 24 hrs by CCK8 assay. The format is toxicity, cell-based. Conditions: raw264.7, 24 h.
In data set [4] the test system is RAW264.7. Nature of the data set: Antiinflammatory activity in mouse RAW264.7 cells assessed as reduction in LPS-induced NO production pre-incubated for 2 hrs followed by LPS stimulation measured after 24 hrs by Griess method. The format is functional, cell-based.
The subject of data set [5] is RAW264.7. Nature of the data set: Antiinflammatory activity in mouse RAW264.7 cells assessed as reduction in LPS-induced TNF-alpha production pre-incubated for 2 hrs followed by LPS stimulation measured after 24 hrs by Griess method. The format is functional, cell-based. Particulars: dose 5-40 µM, time 26.0 hrs.
For data set [6], the system named is RAW264.7. Nature of the data set: Antiinflammatory activity against mouse RAW264.7 cells assessed as inhibition of LPS-induced NF-kappaB/p65 expression at 10 to 40 uM pre-incubated for 2 hrs followed by LPS stimulation measured after 24 hrs by western blot analysis. The format is functional, cell-based. Particulars: dose 10-40 µM, time 26.0 hrs.

Calls of active or inactive are those of the source. The rule behind the calls is not given here.

Take `CC1=C2C=C3CC[C@@H]4C(C)(C)C(=O)[C@H](O)[C@@]4(C)[C@@H]3C[C@H]2OC1=O`: the result in data set [1] and in data set [6] was Active. The Activity entry was “Dose-Dependent Effect” in data set [2], “Non-Toxic” in data set [3] and “Dose-Dependent Effect” in data set [5]. In addition, in data set [4], the half-maximal inhibitory concentration (IC50) was determined as 33 µM.
As to `CC1=C2C=C3CC[C@@H]4C(C)(C)OC(=O)[C@@]4(C)[C@@H]3C[C@H]2OC1=O`, the Activity result in data set [3] is “Non-Toxic”.
For the compound `CC1=C2C=C3CC[C@@H]4C(C)(C)[C@H](O)C(=O)C[C@@]4(C)[C@@H]3C[C@H]2OC1=O`, in data set [3], the Activity entry is “Non-Toxic”. Besides, the IC50 in data set [4] is 33.8 µM.
For the compound `CC1=C2C=C3CC[C@@H]4C(C)(C)C(=O)CC[C@@]4(C)[C@]3(O)C[C@H]2OC1=O`, in data set [3], the Activity result is given as “Non-Toxic”.
In the case of `CC1=C2C(=O)C3=C(C[C@H]2OC1=O)[C@]1(C)CC[C@@H](O)C(C)(CO)[C@H]1CC3` (some centres not stated), the Activity result in data set [3] was “Non-Toxic”.
With `CC1=C2C=C3CC[C@@H]4C(C)(C)C(=O)C(O)=C[C@@]4(C)[C@@H]3C[C@H]2OC1=O`, the Activity result in data set [3] was “Non-Toxic”.
On to `CC1=C2C=C3CC[C@@H]4C(C)(C)[C@@H](O)CC[C@@]4(C)[C@@H]3C[C@H]2OC1=O` [HELIOSCOPINOLIDE B], for which, in data set [3], the Activity entry was “Non-Toxic”.
Consider `CC1=C2C=C3CC[C@@H]4C(C)(C)[C@H](O)CC[C@@]4(C)[C@@H]3C[C@H]2OC1=O` [HELIOSCOPINOLIDE A], for which the Activity result in data set [3] is “Non-Toxic”.
Same read-out and setting: to `CC1=C2C=C3CC[C@@H]4C(C)(C)[C@@H](O)CC[C@@]4(C)[C@]3(O)C[C@H]2OC1=O` belongs “Non-Toxic”.
As to `CC1=C2C=C3CC[C@@H]4C(C)(C)[C@H](O)[C@H](O)C[C@@]4(C)[C@@H]3C[C@H]2OC1=O`, the Activity entry in data set [3] was “Non-Toxic”.
`CC1=C2C=C3CC[C@@H]4C(C)(C)OC(=O)C[C@@]4(C)[C@@H]3C[C@H]2OC1=O`: the Activity entry in data set [3] is “Non-Toxic”.
